Biological target: T1, human steroid sulfatase (Homo sapiens, UniProt P08842)
T1 construct: Human placenta is obtained freshly after delivery; from tissue; host or cells: human placenta (microsomes, Triton X-100 extract, column-purified)
T1 sequence (P08842 22-583): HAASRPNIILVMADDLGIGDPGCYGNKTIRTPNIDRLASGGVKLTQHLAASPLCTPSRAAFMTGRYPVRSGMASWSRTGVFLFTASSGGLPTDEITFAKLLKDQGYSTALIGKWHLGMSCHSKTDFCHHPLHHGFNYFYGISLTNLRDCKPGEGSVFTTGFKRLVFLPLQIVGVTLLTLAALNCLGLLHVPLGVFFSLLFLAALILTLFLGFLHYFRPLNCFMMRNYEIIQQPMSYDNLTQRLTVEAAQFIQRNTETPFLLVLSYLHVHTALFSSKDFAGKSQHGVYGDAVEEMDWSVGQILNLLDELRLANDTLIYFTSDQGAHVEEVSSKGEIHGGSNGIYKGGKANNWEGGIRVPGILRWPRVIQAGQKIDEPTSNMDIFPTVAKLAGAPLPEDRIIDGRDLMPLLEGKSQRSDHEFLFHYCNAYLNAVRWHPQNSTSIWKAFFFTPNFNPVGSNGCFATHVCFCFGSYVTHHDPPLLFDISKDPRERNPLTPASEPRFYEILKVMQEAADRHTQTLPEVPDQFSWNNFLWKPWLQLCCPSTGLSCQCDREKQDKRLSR
Experiment: Assay of Human Steroid Sulfatase (purified from placenta, 4-methylumbelliferyl sulfate cleavage, fluorescence)
Format: biochemical
Conditions: reference compound, determined in parallel to test compounds; substrate 4-methylumbelliferyl sulfate, 37° C., 1 hour
Protocol: For storage, the material is frozen at −70° C.
The activity is recovered in the flow-through.
Plates are incubated at 37° C. for 1 hour.
Relative IC50 values are defined as follows: […]

CC12CCC3c4ccc(OS(N)(=O)=O)cc4CCC3C1CCC2=O (stereo not shown) [estrone sulfamate, Estrone sulfamate]
IC50: ~60 nM
